Test results taken from patent US9586914B2, “Modulators of C3a receptors” (THE UNIVERSITY OF QUEENSLAND, priority 2011, dated 2017).
“Also recorded” adds a separate entry of the source. Where two headings read alike, the source gives them in different places.

Tests used:
[1] = test system: IL1B, IL8, CCL3, EGR1, FOSB and TNF gene expression in HMDMs; assay: Regulation of inflammatory genes in HMDM (qRT-PCR); assay type: cell-based, human; conditions: for Induction of gene expression of IL1B, IL8, CCL3, EGR1, FOSB and TNF: HMDMs, 300 nM, 30 minutes, qRT-PCR, fold change from control
Source text: Human monocyte-derived macrophages (HMDMS) were isolated from buffy coat of anonymous donors provided by the Australian Red Cross Blood Service at Kelvin Grove, Queensland, Australia. White blood cells were separated from other blood components into different layers using Ficoll-Paque Plus Density Centrifugation (GE Healthcare Bio-Science, Uppsala, Sweden) according to manufacturer's instruction. The isolated white blood cells were repeatedly washed with ice-cold water to remove contaminating erythrocytes. CD14^+ monocytes were positively selected from white blood cells using CD14^+ Macs Magnetic Beads (Miltenyi biotech, Auburn, Calif., USA) after successive magnetic sorting and washings. CD14^+ monocytes (1.5×10^6 cells/mL) were seeded in 10 mL of IMDM supplemented with 10% fetal calf serum (FBS), 10 U/mL streptomycin, 10 U/mL penicillin and 2 mmol L-glutamine (Invitrogen). To generate HMDMS, […] of recombinant human macrophage colony stimulating factor (M-CSF) (Peprotech Inc., rocky Hill, N.J., USA) was added for differentiation. HMDMS were maintained at 37° C. in a humidified incubator with 5% CO2 for a week to fully differentiate. At day 7, the adhered HMDMS were harvested by gentle scraping in saline solution.
HMDMs (2×10^6) in 2 mL of IMDM medium were transferred into each well on a 6-well plate. The cells were left to incubate for 6 h to allow adhesion before being serum starved in serum free IMDM to reduce background noise of the C3a treatment. In the time response experiment, cells were treated with 10 nM of C3a or agonist (compound 8 or 64) for 0.5, 1, 2 or 6 h. In concentration response experiments, cells were treated with 1, 10, 100 or 300 nM for 1 h. To prepare the samples for the microarray experiments, cells were treated with agonist at 100-300 nM for 30 min or 1 h in the absence or presence of the antagonist (e.g. SB-290157 or antagonists). […] Cells were washed with saline solution at the end of each treatment before the RNA extraction step.
Total RNA was extracted from cells using RNeasy Mini Plus kit (Qiagen, USA) according to the manufacturer's instructions. The concentration of the RNA was determined by measuring absorbance at λ=260/280 […] on a nanodrop spectrophotometer (Thermo Scientific), according to the manufacturer's instructions.
Total RNA (2-5 μg) was reverse transcribed with Superscript III (Invitrogen, USA) using random oligo dT primer. Reagents were incubated (50 min, 50° C.; then 10 min, 70° C.) in thermal cyclers (Bio-Rad) to complete the reaction, cDNA samples were stored at −20° C. until further use. All RNA work was performed on ice (4° C.) to prevent degradation of the RNA samples.
cDNA (0.5 μg) samples were prepared with 5 μL SYBR® Green PCR master mix (Applied Biosystems™, CA, USA), 2 μL relevant primers (2 μM) and 1 μL dH2O before being analysed using an ABI 7900HT Fast Real-Time PCR System (Applied Biosystems™, CA, USA) according to the manufacturer's specifications. Fluorescence data was collected during the extension phase (60° C.). The concentration response data for each sample was then normalised against the same data for control housekeeping gene, (18S) to quantify and generate gene expression data. All samples were done in at least duplicate. Primers were designed using the Primer-BLAST software (National Center for Biotechnology Information, USA). Primers contained, amplicons that cross exon-exon boundaries to prevent amplification of genomic DNA. […]

C3a receptor (C3aR) = molecular target: T1, C3a receptor (C3aR) (Homo sapiens, UniProt Q16581); assay: Competitive binding with [^125I]-C3a in HMDM; conditions: for IC50 / pIC50 ± SEM / Receptor Binding Affinity pIC50 ± SE: HMDM
T1 construct: peripheral blood mononuclear cells were isolated from buffy coat (obtained from Australian Red Cross Blood Service, Kelvin Grove); endogenous in cells; host or cells: primary human monocyte-derived macrophages (HMDM) differentiated from CD14+ monocytes of donor buffy coat
T1 sequence (Q16581 1-482): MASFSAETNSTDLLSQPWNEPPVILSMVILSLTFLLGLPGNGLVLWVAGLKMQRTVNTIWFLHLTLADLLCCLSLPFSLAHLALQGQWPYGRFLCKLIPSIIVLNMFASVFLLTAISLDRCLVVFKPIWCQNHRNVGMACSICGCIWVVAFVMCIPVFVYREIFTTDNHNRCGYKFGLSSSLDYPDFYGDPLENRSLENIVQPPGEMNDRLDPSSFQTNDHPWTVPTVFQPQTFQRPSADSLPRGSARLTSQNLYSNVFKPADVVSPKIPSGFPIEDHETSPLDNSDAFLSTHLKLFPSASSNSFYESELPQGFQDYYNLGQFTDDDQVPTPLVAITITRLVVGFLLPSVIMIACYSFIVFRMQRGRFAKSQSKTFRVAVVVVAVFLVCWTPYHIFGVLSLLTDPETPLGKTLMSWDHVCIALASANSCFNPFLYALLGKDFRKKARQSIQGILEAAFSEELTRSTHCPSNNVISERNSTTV
Summary of the method: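 IC50 values are geometric means, with −log IC50 computed per experiment and given as arithmetic mean ± SE. Cells were CD14+ monocytes from buffy-coat PBMC, differentiated to macrophages and used on day 7. Unbound label was removed by GF/B filtration with 3 cold washes in 50 mM Tris-HCl pH 7.4.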

C3aR = molecular target: T2, C3aR (Homo sapiens, UniProt Q16581); assay: Calcium mobilization assay in HMDM (agonist/antagonist activity); assay type: cell-based
T2 construct: peripheral blood mononuclear cells were isolated from buffy coat (obtained from Australian Red Cross Blood Service, Kelvin Grove); endogenous in cells; host or cells: primary human monocyte-derived macrophages (HMDM) differentiated from CD14+ monocytes of donor buffy coat
T2 sequence (Q16581 1-482): T1 sequence (Q16581 1-482)
Summary of the method: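 Human monocyte-derived macrophages, 5×10^4 cells/well, loaded 1 h at 37 °C with 4 μM Fluo-3 in HBSS/HEPES/probenecid buffer, pH 7.4. Agonist mode: calcium release read 300 s; antagonist mode: 900 s compound preincubation then agonist, read 300 s (ex 485/em 520 nm); compared with hC3a.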

[2] = Table 8, read-out: Receptor Binding Affinity ^125I IC50
[3] = Table 10, HMDM, read-out: Agonist Activity EC50
[4] = Table 6, competitive binding with [^125I]-C3a
[5] = Table 6, competitive binding with [^125I]-C3a, read-out: IC50 (converted)
[6] = Table 11, [^125I]-C3a, read-out: Receptor Binding Affinity IC50
[7] = Table 9, Ca^2+ mobilization, HMDM
[8] = Table 11, Ca^2+ mobilisation, HMDM

| Compound | Induction of gene expression of IL1B, IL8, CCL3, EGR1, FOSB and TNF [1] | IC50 (C3a receptor (C3aR); [2]) [nM] | -Log IC50 (C3a receptor (C3aR); Table 14, binding affinity for C3aR on HMDM) | EC50 (C3aR; [3]) [nM] | Function at C3aR (agonist / antagonist) (C3aR; text of Example 100) | pIC50 ± SEM (C3a receptor (C3aR); [4]) | IC50 (C3a receptor (C3aR); [5]) [nM] | Receptor Binding Affinity pIC50 ± SE (C3a receptor (C3aR); Table 11, [^125I]-C3a) | IC50 (C3a receptor (C3aR); [6]) [nM] | pEC50 ± SEM (C3aR; [7]) | EC50 (C3aR; Table 9, Ca^2+ mobilization, HMDM, read-out: EC50) [nM] | Apparent Antagonist Activity pEC50 ± SE (C3aR; [8]) | EC50 (C3aR; Table 11, Ca^2+ mobilisation, HMDM, read-out: Apparent Antagonist Activity EC50) [nM] | Effect of pertussis toxin pre-treatment on gene induction by C3a or compounds 8 or 64 ([1]; 200 ng/mL pertussis toxin overnight, then 300 nM agonist for 30 minutes (not shown)) | Effect of antagonist on gene induction by C3a or compounds 8 or 64 ([1]; SB290157 5 μM, 30 mins preincubation) | IC50 (C3aR; Table 9, antagonist SB290157, Ca^2+ mobilization, HMDM, read-out: IC50 (printed in the EC50 (nM) column)) [nM] | IC50 (C3aR; Table 10, HMDM, read-out: Antagonist Activity Ca^2+ IC50) [nM] | Apparent Antagonist Activity pEC50 ± SE (symbol) (C3aR; Table 11) | Apparent Antagonist Activity pIC50 ± SE (C3aR; [8]) | IC50 (C3aR; Table 11, Ca^2+ mobilisation, HMDM, read-out: Apparent Antagonist Activity IC50) [nM] |
| --- | --- | --- | --- | --- | --- | --- | --- | --- | --- | --- | --- | --- | --- | --- | --- | --- | --- | --- | --- | --- |
| Cc1nc(C(c2ccccc2)c2ccccc2)[nH]c1C(=O)N[C@@H](CCCNC(=N)N)C(=O)O [Compound 64, 2-Diphenylmethyl-4-methyl imidazole-5-carboxyl-Arg-OH] | significantly induce gene expression; also recorded: induced expression of inflammatory genes | 7.6 | 8.0 | 24 | potent full agonist |  |  |  |  |  |  |  |  |  |  |  |  |  |  |  |
| hC3a: human complement protein C3a, natural ligand of the C3a receptor; unlabelled competitor and reference agonist | significantly induce gene expression | 0.07 |  | 45000 |  | 9.64 ± 0.04 | 0.23 | 9.64 ± 0.04 | 0.23 | 7.19 ± 0.06 | 65 | 7.2 ± 0.06 | 65 |  |  |  |  |  |  |  |
| pertussis toxin [reference compound] |  |  |  |  |  |  |  |  |  |  |  |  |  | ablated |  |  |  |  |  |  |
| NC(N)=NCCC[C@H](NC(=O)COCC(c1ccccc1)c1ccccc1)C(=O)O [SB290157, reference compound] |  | 11 |  |  |  | 7.42 ± 0.06 | 38 | 7.42 ± 0.06 | 38 | 5.52 ± 0.08 |  |  |  |  | prevented | 3050 | 1300 | * (The compounds show no agonist activity in calcium mobilisation assays up to 100 μM.) | 5.6 ± 0.09 | 2700 |
